The source of these data is patent publication US20140134136A1, “COMPOSITIONS AND METHODS FOR AUDITORY THERAPY” (MASSACHUSETTS EYE AND EAR INFIRMARY, priority 2012, published 2014).

“Also recorded” adds a separate entry of the source. Some results are limits rather than exact numbers.

The subject of one series is Atoh1 promoter/enhancer. The series can be described thus: Comparison of constructs (Atoh1 promoter/enhancer binding, mRNA transcription, protein translation). The series is classed as cell-based. An excerpt:
FIG. 1A-FIG. 1E are schematics depicting constructs used to generate an inducible Atoh1 fusion protein. FIG. 1A depicts the construct termed Flag-Atoh1-ER-DsRed. In order to measure the translocation of the fusion protein between the cytoplasm and […], a construct was engineered to include the DsRed transgene. To aid in the detection of Atoh1 (Atonal homolog 1), several experimental constructs were engineered to include one or two consecutive flag-tagged sequences (Vallier, Mancip et al. 2001). To obtain the tamoxifen sensitive Atoh1 construct, PCR cloning primers were designed so that 1) an EcoRI site was placed on the 5′ end and a Kozac sequence (CACC) was placed upstream of the Atoh1 start codon; 2) the Atoh1 stop codon (TAG) was deleted; 3) the flag tagged Atoh1 sequence was linked to an Estrogen Receptor (ER) sequence by the sequence […] (SEQ ID NO: 1) encoding a polypeptide linker; 4) the ER stop codon (TAG) was deleted; 5) the ER sequence was linked to a DsRed sequence by the sequence […] (SEQ ID NO: 2) encoding a polypeptide linker; and 6) a Not I site was included on the 3′ end. The linker sequences were designed to translate into multiple proline sequences, which provide an increased degree of freedom for the fusion protein subunits. […]

The test system of series [1] is alpha and beta isoforms of the estrogen receptor. The settings on record: cited from earlier work.
Series [2] deals with Atoh1 5′ enhancer/promoter region. The series can be described thus: Luciferase assay of Atoh1 enhancer/promoter binding. The series is classed as cell-based. Conditions: HEK cells stably transfected with Atoh1enhancer-luciferase and transiently with Atoh1-ER-DsRed; 72 hrs, increasing doses. The protocol: The stably transfected HEK cells were transiently transfected with either the cmv.Atoh1-ER-DsRed construct or a cmv.DsRed-ER control construct. […] All cells were also co-transfected with Renilla transfection controls.
The Atoh1 5′ enhancer/promoter region (Helms, Abney et al. 2000) was cloned into the MCS of the pGL3-Promoter Luciferase Reporter Vector (Promega), and was stably expressed on a HEK cell line using selection to […]. These cells were grown until 80% confluent on 6-well plates, and then transiently transfected with either the cmv.Atoh1 control vector, the cmv.Atoh1-ER-DsRed construct, or a cmv.DsRed-ER negative control construct using 3:1 target DNA to Fugene 6 Transfection Reagent. All cells were also co-transfected with Renilla transfection controls. […] Firefly luciferase activity was measured in a manual TD-20/20 Luminometer (Turner Designs).

In a further series the test system is organs of Corti. The series can be described thus: Organ of Corti explants electroporated with the construct. In kind it is cell-based, mice. Conditions: 1 μM tamoxifen. An excerpt: The construct was electroporated into neonatal organs of Corti isolated from transgenic mouse pups that express GFP under control of the 5′ Atoh1 enhancer/promoter.
Series [3] concerns Atoh1-ER-DsRed fusion protein. Description: Nuclear translocalization assay (DsRed fluorescence of isolated nuclei). The series is classed as cell-based. Conditions: for localization of Atoh1-ER-DsRed to the nucleus: HEK cells, graded doses; for time to complete cytoplasmic localization of the fusion protein after removal from the culture media: removal of 4OHT/tamoxifen from culture media; for DsRed fluorescence in the nuclear fraction: HEK cells transfected with CMV-Atoh1-ER-DsRed, p<0.05. On the procedure: Constructs were generated to express inducible Atoh1-ER fusion proteins (FIG. 1).
HEK cells were cultured until 50% confluent in 6-well culture dishes (type) then subjected to transfection using 3:1 target DNA to Fugene 6 Transfection Reagent (ROCHE). […] Cells were then processed for cytosolic and nuclear fractionation (BioVision). The isolated nuclear fraction collected from each of 5 sample wells per condition was mounted to a coverslip and average pixel density from 5 regions of interest (206.5×165.2 pixel at 20× magnification) was measured with a Cy3 ([…]) filter on a Zeiss epifluorescent microscope using MetaMorph software.

The next series relates to Atoh1 mRNA. Description: Atoh1 mRNA expression by RT-PCR and qPCR. The series is classed as cell-based. The settings on record: HEK cells transiently transfected with Atoh1-ER-DsRed; different doses. The protocol: Transiently transfected HEK cells were incubated with different doses of 4OHT.
Next, total RNA was extracted from the cells by adding 1 ml Trizol reagent (Invitrogen) to each well for 5 min, cells were scraped into a 1.5 ml tube (1 tube/well), incubated with […] chloroform (in hood) for 2 min centrifuged for 20 min at 12,000 g at 4° C., supernatant was collected in a new 1.5 ml tube, incubated with 1:1 equivalent volume of 2-propanol equal volume to supernatant, and centrifuged through the RNeasy mini kit columns at 8000 g for 15 sec. RNA was eluted from the column by adding […] RW1, centrifuging the column at 8000 g 15 s, adding […] washes of RPE2 and re-centrifuging at 8000 g 15 s, adding one spin to dry membrane (10,000 g, 1 min), and eluting the RNA by adding […] RNAse free water into new 1.5 ml tube and centrifuging a final time at 8000 g for 15 s. […]
For quantitative PCR (qPCR) analysis, 300 μL of qPCR Master Mix (Invitrogen) was added to a PCR tube with 300 μL dH2O, which was then divided into 5 tubes (120 μL each). […] Quantitative PCR was performed and the amount of RNA was determined Delta delta Ct measurements were calculated for each treatment group, and then were normalized to fold change from groups incubated in the absence of tamoxifen. […]

The next series has as its system myosin 7a. The series can be described thus: Myosin 7a immunolabeling in transfected HEI OC1 cells. In kind it is cell-based. The protocol:
To test this, the expression of myosin 7a, which is a downstream target of Atoh1 signaling, was measured in HEI OC1 cells transfected with the Atoh1-ER-DsRed construct.

The test system of another series is Atoh1 protein. Description: Western blot analysis of Atoh1 protein. The settings on record: transiently transfected HEK cells; different doses for 72 hr. The series is classed as cell-based. An excerpt:
Whole cell protein was collected and processed for Western blot analysis. Positive control samples were transfected with a flag-tagged Atoh1 construct under control of a cmv promoter (flagAtoh1) and negative control samples were transfected with the DsRedER construct.
Control samples were similarly transfected with either DsRed-ER (negative control) or a positive control vector (cmv.flagAtoh1). Cells were lysed, the whole cell protein was collected and processed for Western blot analysis using either anti-Atoh1polyclonal antibody (Developmental Studies Hybridoma Bank) or a polyclonal anti-b-actin antibody (Sigma).
In general terms: A western blot detects proteins with antibodies after separation by electrophoresis.

In series [4] the test system is Atoh1-ER-DsRed fusion protein. Description: Nuclear localization in electroporated cochlear spheres. The series is classed as cell-based, mice. An excerpt:
(DAPI=blue; DsRed fluorescence=red). […] Yellow box highlights optimal conditions (+=nuclear localization in […] of cells; −/+≈50% nuclear localization; −=>0.10% nuclear localization.
Cochlear derived progenitor cells were generated and floating aggregates (cochlear spheres) propagated as previously described (Oshima et al., Journal of the Association for Research in Otolaryngology, 2007. 8(1): 18-31) with the following modifications. Cochleas were isolated from litters of P0-P3 ROSA26-GFP mice, the organs of Corti were dissected, pooled, trypsinized, triturated, and centrifuged. The pellet was re-suspended in SFM, filtered through a […] cell strainer, and cultured for 5 days in this same media supplemented with growth factors (10 ng/ml of FGF, IGF, EGF, Heparin sulfate). Floating aggregates were collected, centrifuged, triturated using a 100 μl pipette, re-suspended in 300 μl Optimem, and electroporated (8 pulses; 25 V; duration, 50 ms; interval, 100 ms with 2 mg/ml DNA in water, and incubated in 3:1 Fugene 6 overnight) using 50 μg of plasmid DNA. […] Finally, spheres from each of these groups were centrifuged, adhered to glass coverslips by incubation for 2-4 hours at 37° C. on glass coverslips coated with 1:1 poly-lysine/polyornithine, fixed in 4% paraformaldehyde for 20 minutes, washed three times in PBS, and stored at 4° C. for later analysis.

For “Flag-Atoh1-ER: construct encoding a flag-tagged Atoh1-ER fusion protein without DsRed (SEQ ID NO: 16)”, in the series with Atoh1 promoter/enhancer, the “Atoh1 promoter/enhancer binding, Atoh1 mRNA transcription and Atoh1 protein translation compared with the flag-Atoh1-ER-DsRed construct” value is recorded as “on average higher than, but not significantly different from”.

Turning to `O=C(c1ccc(OCCN2CCCCC2)cc1)c1c(-c2ccc(O)cc2)sc2cc(O)ccc12` [raloxifene], in series [1], the “preference of binding to estrogen receptor isoforms” value (from here on “preference of binding”) is recorded as “bind preferentially to the alpha receptor”.

Consider `CC/C(=C(\c1ccccc1)c1ccc(OCCN(C)C)cc1)c1ccccc1` [tamoxifen], for which the “binding to / activation of the enhancer/promoter region of the Atoh1 gene” value in [2] is recorded as “dose-dependent increase in binding”. The “hair cells in electroporated organs of Corti” value in the series with organs of Corti was “supernumerary hair cells”. Besides, the “DsRed fluorescence against increasing Tamoxifen concentration” value in [3] (1 μM) is “increased fluorescence compared to higher (100 μM) and lower doses (1 nM)”. In [3], the “localization of Atoh1-ER-DsRed to the nucleus” value was “dose-dependent localization” and the “time to complete cytoplasmic localization of the fusion protein after removal from the culture media” value was no more than 2 weeks. This compound returned a minimum effective dose in [3] (for 2-7 days, HEK cells (FIG. 2)) of 1 nM. Further, in the series with Atoh1 mRNA, the “Atoh1 mRNA expression” value was “increased the expression of Atoh1 in a dose-dependent manner”. Moreover, the “myosin 7a positive cells within the spheres” value in the series on myosin 7a (OC1 cells transfected with Atoh1-ER-DsRed, 3 days in differentiating conditions (39° C.)) was “significant increase”.

Take `C[C@]12CC[C@@H]3c4ccc(O)cc4CC[C@H]3[C@@H]1CC[C@@H]2O` [17-beta-estradiol]: the “preference of binding” value in series [1] is “binds equally well to both receptors”.

Consider `O=c1c(O)c(-c2ccc(O)c(O)c2)oc2cc(O)cc(O)c12` [Quercetin], for which the “preference of binding” value in [1] is given as “selectively binds to the estrogen receptor beta (ERβ)”.

With `CC/C(=C(\c1ccc(O)cc1)c1ccc(OCCN(C)C)cc1)c1ccccc1` [4OHT], in the series on Atoh1 protein, the Atoh1 protein levels entry is reported as “increased the concentration of cytosolic Atoh1 protein in a dose-dependent manner; also recorded: increase in Atoh1 protein levels”. Moreover, in series [2], the “binding to / activation of the enhancer/promoter region of the Atoh1 gene” value is recorded as “dose-dependent increase; also recorded: induced activation of the Atoh1 enhancer region”. In addition, the “nuclear localization of the fusion protein” value in series [4] (cochlear spheres from ROSA26-GFP mice, 1 nM, after 48 hrs) is “punctate nuclear localization”. The compound further came in with a minimum effective dose in series [4] (for 2-7 days (FIG. 3)) of 1 nM. The “DsRed fluorescence in the nuclear fraction” value in series [3] (1 nM 4OHT for 72 hrs) was 848.0+/−29.33 au; in series [3] (1 mM 4OHT for 72 hrs), 3,200.9+/−156.95 au. In series [3], the “localization of Atoh1-ER-DsRed to the nucleus” value is “dose-dependent manner”. The “time to complete cytoplasmic localization of the fusion protein after removal from the culture media” value in [3] was no more than 2 weeks. Also, the “Atoh1 mRNA expression” value with Atoh1 mRNA is reported as “upregulates the expression of Atoh1 in a dose-dependent manner; also recorded: increase in Atoh1 mRNA expression”. In addition, the “myosin 7a labeling” value in the series with myosin 7a (HEI OC1 cells transfected with Atoh1-ER-DsRed, differentiating conditions (39° C.), 1 mM 4OHT for three days, p<0.001 vs vehicle) is 79%.
